A word on the inhibition: it is the drop in the measured response relative to a control, in per cent.

Structures are written as SMILES.

From patent US20220009920A1 (GB005, Inc., priority 2020, published 2022) come the findings set out here.

Common to all, as to assay: Large panel kinase profiling
Holding throughout (format): biochemical
Conditions in all cases: 1 μM test article, 1 mM ATP

One assay addresses T1, DAPK3 (Homo sapiens, UniProt O43293).
T1 construct: AssayQuant Technologies, Inc. (service laboratory)
An outline of the steps:
(§1)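 With ATP fixed at 1 mM, each kinase was exposed to 1 μM compound in a PhosphoSens CSox-Sensor reaction. Sealed plates were incubated at 30° C. and read in kinetic mode.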

Another assay addresses T2, GRK4 (Homo sapiens, UniProt P32298).
T2 construct: AssayQuant Technologies, Inc. (service provider)
The method in brief:
as §1

The target of another assay is PRKCD/CPKCD (Homo sapiens, UniProt Q05655). An outline of the steps:
as §1

Another assay addresses T3, SGK3 (Homo sapiens, UniProt Q96BR1).
T3 construct: AssayQuant Technologies, Inc. (contract assay)
T3 sequence (Q96BR1 1-496): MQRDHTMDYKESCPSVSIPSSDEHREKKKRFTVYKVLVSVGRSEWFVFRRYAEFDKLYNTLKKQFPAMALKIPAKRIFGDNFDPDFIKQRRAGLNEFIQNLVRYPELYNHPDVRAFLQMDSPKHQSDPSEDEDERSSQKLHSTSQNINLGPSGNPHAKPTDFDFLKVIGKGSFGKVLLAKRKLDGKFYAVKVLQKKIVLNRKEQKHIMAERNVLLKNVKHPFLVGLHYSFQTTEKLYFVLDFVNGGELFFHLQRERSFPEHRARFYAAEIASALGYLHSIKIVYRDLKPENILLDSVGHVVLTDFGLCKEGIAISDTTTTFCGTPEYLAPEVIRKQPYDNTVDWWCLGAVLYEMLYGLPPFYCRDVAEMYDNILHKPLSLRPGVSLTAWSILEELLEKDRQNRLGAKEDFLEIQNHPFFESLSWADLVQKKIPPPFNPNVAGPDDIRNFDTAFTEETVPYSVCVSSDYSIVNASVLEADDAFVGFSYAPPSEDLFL
An outline of the steps:
as §1

The next assay concerns the target T4, PRKCI/PKCI (Homo sapiens, UniProt P41743).
T4 sequence (P41743 1-596): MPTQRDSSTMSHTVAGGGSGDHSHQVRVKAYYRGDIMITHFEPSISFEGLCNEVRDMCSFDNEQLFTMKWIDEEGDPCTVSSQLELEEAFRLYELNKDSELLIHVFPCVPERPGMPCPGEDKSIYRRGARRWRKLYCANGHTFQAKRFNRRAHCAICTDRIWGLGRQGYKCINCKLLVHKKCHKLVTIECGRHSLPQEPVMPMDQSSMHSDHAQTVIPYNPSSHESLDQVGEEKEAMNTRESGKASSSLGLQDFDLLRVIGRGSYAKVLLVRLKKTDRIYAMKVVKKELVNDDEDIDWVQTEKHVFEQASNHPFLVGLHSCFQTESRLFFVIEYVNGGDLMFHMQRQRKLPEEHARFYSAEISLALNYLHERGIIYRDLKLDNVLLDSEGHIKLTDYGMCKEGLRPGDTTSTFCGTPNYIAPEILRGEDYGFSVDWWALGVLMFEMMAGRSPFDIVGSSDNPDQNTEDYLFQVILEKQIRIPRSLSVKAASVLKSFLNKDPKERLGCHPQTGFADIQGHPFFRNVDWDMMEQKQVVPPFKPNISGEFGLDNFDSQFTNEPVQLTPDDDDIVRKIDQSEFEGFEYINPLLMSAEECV
The method in brief: as §1

T1 sequence (O43293 whole entry, species assumed): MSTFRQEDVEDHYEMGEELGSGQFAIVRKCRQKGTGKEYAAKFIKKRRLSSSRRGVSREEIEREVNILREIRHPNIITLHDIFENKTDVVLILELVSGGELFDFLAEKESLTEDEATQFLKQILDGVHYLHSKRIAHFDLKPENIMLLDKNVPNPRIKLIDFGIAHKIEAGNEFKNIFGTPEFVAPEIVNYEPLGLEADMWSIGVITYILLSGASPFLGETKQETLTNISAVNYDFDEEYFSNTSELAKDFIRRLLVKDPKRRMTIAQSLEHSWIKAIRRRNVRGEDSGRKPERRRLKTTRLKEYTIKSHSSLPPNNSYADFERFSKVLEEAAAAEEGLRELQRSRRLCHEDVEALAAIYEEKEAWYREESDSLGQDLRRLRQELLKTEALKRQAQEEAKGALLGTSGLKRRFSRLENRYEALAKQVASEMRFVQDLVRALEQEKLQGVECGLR
T2 sequence (P32298 whole entry, species assumed): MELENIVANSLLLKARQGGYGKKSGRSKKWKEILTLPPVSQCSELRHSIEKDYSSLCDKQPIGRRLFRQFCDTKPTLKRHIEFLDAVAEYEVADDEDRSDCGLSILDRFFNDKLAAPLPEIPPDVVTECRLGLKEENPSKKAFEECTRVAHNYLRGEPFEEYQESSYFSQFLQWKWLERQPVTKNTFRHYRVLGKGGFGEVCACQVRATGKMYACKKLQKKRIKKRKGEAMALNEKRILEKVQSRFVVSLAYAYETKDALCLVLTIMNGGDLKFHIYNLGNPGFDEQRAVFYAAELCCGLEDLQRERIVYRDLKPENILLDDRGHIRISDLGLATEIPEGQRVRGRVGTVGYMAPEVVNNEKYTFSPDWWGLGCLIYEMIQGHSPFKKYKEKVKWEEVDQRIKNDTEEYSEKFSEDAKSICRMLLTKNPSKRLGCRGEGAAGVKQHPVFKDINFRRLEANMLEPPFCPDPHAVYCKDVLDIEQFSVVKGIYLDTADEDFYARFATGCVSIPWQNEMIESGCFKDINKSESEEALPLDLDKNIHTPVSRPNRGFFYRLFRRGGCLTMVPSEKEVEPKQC
Sequence of PRKCD/CPKCD (Q05655 whole entry): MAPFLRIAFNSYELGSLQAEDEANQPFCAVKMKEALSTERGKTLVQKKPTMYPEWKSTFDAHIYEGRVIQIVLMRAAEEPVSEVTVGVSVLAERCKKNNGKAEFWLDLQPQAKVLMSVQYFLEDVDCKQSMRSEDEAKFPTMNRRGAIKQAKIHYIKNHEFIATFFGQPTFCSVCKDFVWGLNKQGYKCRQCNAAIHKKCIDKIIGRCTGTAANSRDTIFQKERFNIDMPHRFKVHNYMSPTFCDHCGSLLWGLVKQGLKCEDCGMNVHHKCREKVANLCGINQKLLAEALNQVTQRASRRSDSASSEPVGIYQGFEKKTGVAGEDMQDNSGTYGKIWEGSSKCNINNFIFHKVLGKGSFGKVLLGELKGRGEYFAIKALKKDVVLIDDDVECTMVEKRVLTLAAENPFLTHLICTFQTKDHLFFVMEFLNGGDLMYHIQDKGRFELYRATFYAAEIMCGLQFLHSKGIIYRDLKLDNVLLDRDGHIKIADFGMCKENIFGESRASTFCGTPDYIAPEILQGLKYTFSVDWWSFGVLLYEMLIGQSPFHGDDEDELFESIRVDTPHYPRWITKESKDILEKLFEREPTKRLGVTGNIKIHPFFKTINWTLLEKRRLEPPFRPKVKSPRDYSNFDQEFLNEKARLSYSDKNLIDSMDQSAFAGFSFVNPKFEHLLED

`C=CC(=O)N1CCC[C@@H](c2c(F)cc(C(N)=O)c3[nH]c4c(c23)CCC4)C1` [Compound 10-2, (S)-8-(1-acryloylpiperidin-3-yl)-7-fluoro-1,2,3,4-tetrahydrocyclo-penta[b]indole-5-carboxamide]: the inhibition at 1 µM against DAPK3 is -4.9%; on GRK4, -36.1%; on PRKCD/CPKCD, -0.6%; against SGK3 it was -32.5%; against PRKCI/PKCI, -3.3%.

In the case of `C=CC(=O)N1CCCC(c2c(F)cc(C(N)=O)c3[nH]c4c(c23)CCCCC4)C1` (single isomer, unassigned) [Compound 5-6], the inhibition at 1 µM at DAPK3 is 25.9%; against GRK4, 3.4%; against PRKCD/CPKCD, -42.2%; against SGK3 it was -28.1%; at PRKCI/PKCI, -0.6%.

`C=CC(=O)N1CCC[C@@H](c2c(F)cc(C(N)=O)c3[nH]c4c(c23)CC2(CC4)CC2)C1` [Compound 6-2, (S)-5-(1-acryloylpiperidin-3-yl)-6-fluoro-1,2,4,9-tetrahydrospiro[carbazole-3,1′-cyclopropane]-8-carboxamide]: the inhibition at 1 µM was 10% at DAPK3; -53% at GRK4; -0.1% against PRKCD/CPKCD; -19.9% at SGK3; 9% on PRKCI/PKCI.
